# Entries after “also recorded” stand apart in the source; their conditions may differ. Read-outs that look alike come from different tables or passages of the source.
# How the values were obtained:
# recombinant human TSG-6 = molecular target: T1, recombinant human TSG-6 (Homo sapiens, UniProt P19827+P98066); assay: In vitro HC-transfer assay (IαI + rhTSG-6, Western blot anti-HC1); assay type: biochemical; settings: 15 μM HA, 1.8 μM IαI, rhTSG-6, 2 h at 37 °C; for Substrate for HC transfer: Table 6; for Activity as substrate for HC transfer (text): Western blot anti-HC1
# T1 construct: TSG-6–mediated HC-transfer assays (using full-length TSG6); purchased R&D Systems
# T1 sequence (P98066 18-277): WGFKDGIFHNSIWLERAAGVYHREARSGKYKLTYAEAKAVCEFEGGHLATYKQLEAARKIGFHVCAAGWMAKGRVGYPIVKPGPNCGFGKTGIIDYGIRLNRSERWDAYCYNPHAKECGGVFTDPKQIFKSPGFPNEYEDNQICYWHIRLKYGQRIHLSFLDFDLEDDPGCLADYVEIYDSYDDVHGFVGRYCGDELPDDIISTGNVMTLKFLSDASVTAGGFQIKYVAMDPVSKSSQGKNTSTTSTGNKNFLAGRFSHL
# T1 sequence (P19827 35-672 limits assumed): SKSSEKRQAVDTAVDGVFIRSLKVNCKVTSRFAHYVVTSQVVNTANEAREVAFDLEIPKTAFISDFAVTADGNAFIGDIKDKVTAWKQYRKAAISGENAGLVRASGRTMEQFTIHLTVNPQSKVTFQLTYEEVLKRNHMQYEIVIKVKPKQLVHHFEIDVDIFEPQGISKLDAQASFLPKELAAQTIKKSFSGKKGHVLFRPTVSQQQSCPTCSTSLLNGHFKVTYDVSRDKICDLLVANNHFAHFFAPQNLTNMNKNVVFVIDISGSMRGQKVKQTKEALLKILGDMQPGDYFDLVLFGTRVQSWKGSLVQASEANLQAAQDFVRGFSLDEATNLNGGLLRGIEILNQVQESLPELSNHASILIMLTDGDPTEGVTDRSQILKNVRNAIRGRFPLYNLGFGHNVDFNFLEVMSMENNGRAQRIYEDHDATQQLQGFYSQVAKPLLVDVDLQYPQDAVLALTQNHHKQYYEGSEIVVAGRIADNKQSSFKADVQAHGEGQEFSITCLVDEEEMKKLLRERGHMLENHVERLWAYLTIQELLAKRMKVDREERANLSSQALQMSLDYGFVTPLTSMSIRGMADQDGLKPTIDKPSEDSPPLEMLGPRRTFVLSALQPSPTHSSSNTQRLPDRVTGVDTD
# Method: Covalent transfer of HC from IαI onto unmodified and chemically modified HA oligosaccharides was analyzed using the assay described previously ([26]). All reactions were performed using a buffer of 20 mM Hepes, pH 7.5, 150 mM NaCl, and 5 mM MgCl2. In a “standard” assay, HA oligosaccharides were at 15 μM, human IαI ([97]) 1.8 at μM (based on a molecular weight of 180 kDa), and recombinant human TSG-6 (R&D Systems) at 2.8 μM (based on a molecular weight of 35 kDa). Reaction mixtures were analyzed by SDS-PAGE using 4 to 12% bis-tris polyacrylamide gels (Invitrogen). For Western blot analysis, proteins were transferred onto nitrocellulose membrane (GE Healthcare) and incubated with antisera against HC1 (CP7, 1:10,000; ([98])). Bound primary antibody was detected using goat-anti-rabbit IgG conjugated to IR dye (LI-COR Biosciences) and blots imaged using an Odyssey Clx near-IR fluorescence imaging system (LICOR Biosciences).
# hisCD44_HABD^20–169 = molecular target: T2, hisCD44_HABD^20–169 (Homo sapiens, UniProt P16070); assay: MST of HA oligosaccharides binding to hisCD44_HABD^20–169; settings: for Kd: 10 mM Hepes pH 7.5, 150 mM NaCl, 0.05% Tween-20, 25 °C, three titrations, read-out: KD; for % Binding affinity hisCD44_HABD^20–169: Table 6, relative to unmodified oligosaccharide of the same length, by MST
# T2 construct: A novel construct consisting of residues 20 to 169 of human CD44 and an N-terminal six-histidine tag; made in house
# T2 sequence (P16070 20-169): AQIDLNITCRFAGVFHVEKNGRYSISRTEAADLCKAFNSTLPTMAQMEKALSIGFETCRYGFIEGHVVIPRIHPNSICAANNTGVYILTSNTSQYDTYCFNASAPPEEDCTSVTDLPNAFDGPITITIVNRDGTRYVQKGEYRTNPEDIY
# Method: For hisCD44_HABD^20–169, interactions with HA oligosaccharides were assessed using MST. Protein (200 nM) was labeled with 5 μM red-Tris-NTA-650 dye following the manufacturer’s instructions in 10 mM Hepes, pH 7.4, 150 mM NaCl, 0.05% (v/v) Tween-20 (interaction buffer). Stock solutions of HA oligosaccharides (5 mM in interaction buffer) were serially diluted (1:1 in interaction buffer) 16 times before each concentration was mixed with an equal volume of labeled protein (10 nM final concentration hisCD44_HABD^20–169). Samples were loaded into standard glass capillaries (NanoTemper) and thermophoresis measured at 25 °C (with active temperature control) using a Monolith NT.115pico instrument (NanoTemper) running NT Control software (version 1.0.1). All experiments were performed in triplicate and data analyzed with the “KD fit model” in the NT Analysis software (version 2.0.2).
# Link_TSG6 = molecular target: T3, Link_TSG6 (Homo sapiens, UniProt P98066); assay: ITC of HA oligosaccharides binding to Link_TSG6; settings: for N / ΔG / ΔH / −TΔS: 25 °C, 5 mM MES pH 6.0, mean ± SEM; for N: 0.029 mM Link_TSG6, 0.29 mM oligosaccharide, four titrations
# T3 construct: made in house
# T3 sequence (P98066 36-129 limits assumed): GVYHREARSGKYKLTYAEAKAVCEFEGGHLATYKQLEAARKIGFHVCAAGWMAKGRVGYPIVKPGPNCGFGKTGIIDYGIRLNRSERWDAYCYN
# Method: ITC experiments were performed using a MicroCal PEAQ-ITC instrument (Malvern Instruments). Oligosaccharide stock solutions were prepared at 0.29 mM (in 5 mM MES, pH 6.0) and injected (18 × 2 μl with 120 s spacing between injections) into the cell containing ∼200 μl Link_TSG6 (0.029 mM) in matched buffer at 25 °C. Data were fit to a one site binding model, after subtracting the heats from the last three injections to account for heat of dilution of the oligosaccharide into buffer. Each oligosaccharide was analyzed in four independently performed ITC experiments.
SMILES,Substrate for HC transfer (recombinant human TSG-6),Activity as substrate for HC transfer (text) (recombinant human TSG-6),"N (Link_TSG6; Table 1, ITC)","ΔG (Link_TSG6; Table 1, ITC)","ΔH (Link_TSG6; Table 1, ITC)","−TΔS (Link_TSG6; Table 1, ITC)",also measured
CC(=O)N[C@H]1[C@H](O[C@H]2[C@H](O)[C@@H](O)[C@H](O[C@@H]([C@H](O)[C@H](O)CO)[C@H](CNc3cccc(C(=O)O)c3)NC(C)=O)O[C@@H]2C(=O)O)O[C@H](CO)[C@@H](O)[C@@H]1O[C@@H]1O[C@H](C(=O)O)[C@@H](O)[C@H](O)[C@H]1O [HA4-3AA],No,–,–,–,–,–,"% of binding to hisCD44_HABD^20–169 compared to the unmodified oligosaccharide of the same length (hisCD44_HABD^20–169; MST): 260%; % HAn^AN: percentage of binding affinity (KB) compared to the unmodified oligosaccharide of the same length (hisCD44_HABD^20–169; Table 2, MST): 260%; Kd (hisCD44_HABD^20–169; Table 2, MST, mean (±SD)): 845 µM; % Binding affinity hisCD44_HABD^20–169 (hisCD44_HABD^20–169): 260%"
COc1ccc(C(=O)O)c(NC[C@H](NC(C)=O)[C@@H](O[C@@H]2O[C@H](C(=O)O)[C@@H](O[C@@H]3O[C@H](CO)[C@@H](O)[C@H](O[C@@H]4O[C@H](C(=O)O)[C@@H](O[C@@H]5O[C@H](CO)[C@@H](O)[C@H](O[C@@H]6O[C@H](C(=O)O)[C@@H](O)[C@H](O)[C@H]6O)[C@H]5NC(C)=O)[C@H](O)[C@H]4O)[C@H]3NC(C)=O)[C@H](O)[C@H]2O)[C@H](O)[C@H](O)CO)c1 [HA6-2A4MBA],Yes,weak substrates; also recorded: could become covalently coupled to an HC,–,–,–,–,"% of binding to Link_TSG6 compared to the unmodified oligosaccharide of the same length (Link_TSG6; ITC): 238%; Fold increase in affinity for Link_TSG6 compared to the unmodified oligosaccharide (Link_TSG6; ITC): 2.4 fold; Kd (Link_TSG6; ITC, read-out: KD for Link_TSG6): 0.46 µM; N (Link_TSG6; Table 4, ITC): 1.00 ± 0.02; ΔG (Link_TSG6; Table 4, ITC): -8.64 ± 0.04 kcal/mol; ΔH (Link_TSG6; Table 4, ITC): -10.07 ± 0.28 kcal/mol; −TΔS (Link_TSG6; Table 4, ITC): 1.44 ± 0.25 kcal•mol^a1; % Binding affinity Link_TSG6 (Link_TSG6; Table 6, relative to unmodified oligosaccharide of the same length, by ITC): 238%; % of binding to hisCD44_HABD^20–169 compared to the unmodified oligosaccharide of the same length (hisCD44_HABD^20–169; MST): 52%; % HAx^AN: percentage of binding affinity (KB) compared to the unmodified oligosaccharide of the same length (hisCD44_HABD^20–169; Table 5, MST): 52%; Kd (hisCD44_HABD^20–169; Table 5, MST, mean ± SD): 198 ± 29 µM; % Binding affinity hisCD44_HABD^20–169 (hisCD44_HABD^20–169): 52%"
CC(=O)N[C@H]1[C@H](O[C@H]2[C@H](O)[C@@H](O)[C@H](O[C@H]3[C@H](O)[C@@H](CO)O[C@@H](O[C@H]4[C@H](O)[C@@H](O)[C@H](O[C@@H]([C@H](O)[C@H](O)CO)[C@H](CNc5ccccc5C(=O)O)NC(C)=O)O[C@@H]4C(=O)O)[C@@H]3NC(C)=O)O[C@@H]2C(=O)O)O[C@H](CO)[C@@H](O)[C@@H]1O[C@@H]1O[C@H](C(=O)O)[C@@H](O)[C@H](O)[C@H]1O [HA6-2AA],Yes,good substrates; also recorded: could become covalently coupled to an HC,1.03 ± 0.02,-8.50 ± 0.04 kcal/mol,-7.84 ± 0.43 kcal/mol,-0.66 ± 0.41 kcal/mol,–
CC(=O)N[C@H]1[C@H](O[C@H]2[C@H](O)[C@@H](O)[C@H](O[C@H]3[C@H](O)[C@@H](CO)O[C@@H](O[C@H]4[C@H](O)[C@@H](O)[C@H](O[C@@H]([C@H](O)[C@H](O)CO)[C@H](CNc5cccc(C(=O)O)c5)NC(C)=O)O[C@@H]4C(=O)O)[C@@H]3NC(C)=O)O[C@@H]2C(=O)O)O[C@H](CO)[C@@H](O)[C@@H]1O[C@@H]1O[C@H](C(=O)O)[C@@H](O)[C@H](O)[C@H]1O [HA6-3AA],No,No HC•HA6 complexes were observed,1.05 ± 0.02,-8.61 ± 0.10 kcal/mol,-6.30 ± 0.11 kcal/mol,-2.21 ± 0.83 kcal/mol,Activity as substrate for HC transfer (text) (recombinant human TSG-6; listed as HA63AA): could become covalently coupled to an HC
CC(=O)N[C@H]1[C@H](O[C@H]2[C@H](O)[C@@H](O)[C@H](O[C@H]3[C@H](O)[C@@H](CO)O[C@@H](O[C@H]4[C@H](O)[C@@H](O)[C@H](O[C@@H]([C@H](O)[C@H](O)CO)[C@H](CNc5ccc(C(=O)O)cc5)NC(C)=O)O[C@@H]4C(=O)O)[C@@H]3NC(C)=O)O[C@@H]2C(=O)O)O[C@H](CO)[C@@H](O)[C@@H]1O[C@@H]1O[C@H](C(=O)O)[C@@H](O)[C@H](O)[C@H]1O [HA6-4AA],Yes,weak substrates,1.02 ± 0.05,-8.40 ± 0.08 kcal/mol,-7.57 ± 0.26 kcal/mol,-0.83 ± 0.34 kcal/mol,–
CC(=O)N[C@H]1[C@H](O[C@H]2[C@H](O)[C@@H](O)[C@H](O[C@H]3[C@H](O)[C@@H](CO)O[C@@H](O[C@H]4[C@H](O)[C@@H](O)[C@H](O[C@H]5[C@H](O)[C@@H](CO)O[C@@H](O[C@H]6[C@H](O)[C@@H](O)[C@H](O[C@@H]([C@H](O)[C@H](O)CO)[C@H](CNc7ccccc7C(=O)O)NC(C)=O)O[C@@H]6C(=O)O)[C@@H]5NC(C)=O)O[C@@H]4C(=O)O)[C@@H]3NC(C)=O)O[C@@H]2C(=O)O)O[C@H](CO)[C@@H](O)[C@@H]1O[C@@H]1O[C@H](C(=O)O)[C@@H](O)[C@H](O)[C@H]1O [HA8-2AA],Yes,retained full activity as substrates,1.06 ± 0.03,-7.83 ± 0.13 kcal/mol,-12.55 ± 0.59 kcal/mol,4.69 ± 0.73 kcal/mol,–
CC(=O)N[C@H]1[C@H](O[C@H]2[C@H](O)[C@@H](O)[C@H](O[C@H]3[C@H](O)[C@@H](CO)O[C@@H](O[C@H]4[C@H](O)[C@@H](O)[C@H](O[C@H]5[C@H](O)[C@@H](CO)O[C@@H](O[C@H]6[C@H](O)[C@@H](O)[C@H](O[C@@H]([C@H](O)[C@H](O)CO)[C@H](CNc7cccc(C(=O)O)c7)NC(C)=O)O[C@@H]6C(=O)O)[C@@H]5NC(C)=O)O[C@@H]4C(=O)O)[C@@H]3NC(C)=O)O[C@@H]2C(=O)O)O[C@H](CO)[C@@H](O)[C@@H]1O[C@@H]1O[C@H](C(=O)O)[C@@H](O)[C@H](O)[C@H]1O [HA8-3AA],Yes,–,1.05 ± 0.03,-8.95 ± 0.13 kcal/mol,-8.53 ± 0.33 kcal/mol,-0.60 ± 0.09 kcal/mol,–
CC(=O)N[C@H]1[C@H](O[C@H]2[C@H](O)[C@@H](O)[C@H](O[C@H]3[C@H](O)[C@@H](CO)O[C@@H](O[C@H]4[C@H](O)[C@@H](O)[C@H](O[C@H]5[C@H](O)[C@@H](CO)O[C@@H](O[C@H]6[C@H](O)[C@@H](O)[C@H](O[C@@H]([C@H](O)[C@H](O)CO)[C@H](CNc7ccc(C(=O)O)cc7)NC(C)=O)O[C@@H]6C(=O)O)[C@@H]5NC(C)=O)O[C@@H]4C(=O)O)[C@@H]3NC(C)=O)O[C@@H]2C(=O)O)O[C@H](CO)[C@@H](O)[C@@H]1O[C@@H]1O[C@H](C(=O)O)[C@@H](O)[C@H](O)[C@H]1O [HA8-4AA],Yes,somewhat weaker substrate than HA8^AN,0.86 ± 0.02,-8.37 ± 0.04 kcal/mol,-11.53 ± 0.25 kcal/mol,3.17 ± 0.26 kcal/mol,–

# Source: PMC11460632, “Chemical modification of hyaluronan oligosaccharides differentially modulates hyaluronan–hyaladherin interactions” (The Journal of Biological Chemistry, 2024)
